Common to all, as to format: cell-based, rat
Assay [1] concerns RBL-2H3 cell-line transfected with the α-chain of the human high-affinity receptor for IgE. Description: Attenuation of antigen- or irritant-induced mediator release by antagonists. Conditions: competing sugars; lectins of e.g. pollen or bacterial and viral agglutinins. As for the experimental part: For example, where a composition was being tested or developed for its ability to attenuate an IgE mediated response such as asthma or hay fever, antigen specific IgE would be present, for example, in the form of human serum.
Following incubation, cells were washed (2×1 ml) with buffer A (120 mM NaC1, 5 mM KC1, 25 mM PIPES, 1 mM CaC12, 0.04 mM MgC12, 5.6 mM glucose, 0.1% BSA, pH7.4) and pre-incubated for a further period of 10 minutes at 37 degrees C. with buffer A (0.5 ml) which was removed before challenge with buffer A (0.4 ml) supplemented with a pre-selected antigen (in an amount as afore described) and the therapeutic composition or the antagonist.
For the determination of antigen induced [^3H]-5HT release, the well was incubated at 37 degrees C. for 15 minutes, cooled on ice, supernatant was then removed and spun at 2000 g (1 minute) before liquid scintillation counting (2 minutes). The percentage release of [^3H]-5HT was calculated by the method of Siraganian and Hook.

Assay [2] has the same test system. Description: Irritant/antigen-induced mediator release in the absence of IgE sensitization. Conditions: control, no sensitizing serum; same antigen concentrations. As for the experimental part:
Parent RBL-2H3 cells or clones transfected with the α-chain of the human high-affinity receptor complex were plated out in 24-well plates at 2×10^5 cells/well as described previously in the citations referred to on Page 2 of this application. For the determination of antigen-induced mediator release, plates were incubated at 37 degrees C. for 15 minutes, cooled on ice, the supernatant was removed, spun at […] (1 minute) before liquid scintillation counting to measure [^3H]-5-hydroxytryptamine (5-HT release. The ImmunoTech histamine enzyme immunoassay was used to quantify histamine release, and hydrolysis of toluene sulphonyl methyl ester was employed to monitor protease release (please see Wilson, A. P. M., Pullar, C. E., Camp, A. M., and Helm B. A., Human IgE Mediates Stimulus Secretion Coupling in Rat Basophilic Leukemia Cells Transfected with the Alpha Chain of the Human High-Affinity Receptor, European Journal of Immunology, 23:240-244, 1993, or alternatively, please see other references cited on Page 2 of this application). […]
For the determination of irritant or antigen induced [^3H]-5HT release, the well was incubated at 37 degrees C. for 15 minutes, cooled in ice, supernatant was then removed and spun at 2000 g (1 minute) before liquid scintillation counting (2 minutes). The percentage release of [^3H]-5HT was calculated by the method of Siraganian and Hook. […]

In assay [3] the test system is RBL-2H3 (H 2/2/C) transfectants. Description: Antigen-induced mediator release after sensitization with serum from a bee-venom-allergic individual. Conditions: cells sensitized with serum (1:10) of bee venom sensitive individual (EC), increasing antigen concentrations. The method, then: Triggering of RBL-2H3 (H 2/2/C) transfectants following sensitization with serum from a bee-venom-allergic individual. Cells were incubated with the serum (1:10), Dex (10-^6M) and [^3H]-5HT. After washing and pre-incubation the cells were challenged with a range of concentrations of purified bee venom phospholipase A2 (PLA2). The percentage release of [^3H]-5HT (●) and β-hexosaminidase (∘) were determined; data were corrected for background and normalized with respect to values obtained for triggering with hIgE-DNP (1 μg/mL and NIP-HSA (100 ng/mL).
Transfected RBL-2H3 clones were incubated for 24 hours with or without serum (1:10 dilution) from a bee venom sensitive individual (EC) in the presence of 10-^6M dexamethazone and [^3H]-5-hydroxytryptamine. […]
[^3H]-5-Hydroxytyptamine was measured after a 15 minutes incubation period, release was corrected for background and expressed relative to the total [^3H]-5-hydroxytryptamine incorporated. […]
For the determination of antigen induced [^3H]-5HT release, the well was incubated at 37 degrees C. for 15 minutes, cooled on ice, supernatant was then removed and spun at 2000 g (1 minute) before liquid scintillation counting (2 minutes). The percentage release of [^3H]-5HT was calculated by the method of Siraganian and Hook (Manual of Clinical Immunology of the American Society for Microbiology Washington D.C., 1980 Page 808).

Regarding `CC(=O)N[C@H]1[C@H]([C@H](O)[C@H](O)CO)OC(O)(C(=O)O)C[C@@H]1O` (stereo partly drawn) [N-acetyl neuraminic acid], the “inhibition of triggering of mast cells and basophils by lectins” value (shortened to “inhibition”) in assay [1] is “can inhibit the triggering of mast cells and basophils”.

In the case of `CC(=O)N[C@H]1C(O)O[C@H](CO)[C@@H](O)[C@@H]1O` (stereo partly drawn) [N-acetyl-D-glucosamin], the “inhibition” value in assay [1] is “can inhibit the triggering of mast cells and basophils”.

With `C[C@@H]1O[C@@H](O)[C@@H](O)[C@H](O)[C@@H]1O` [a-L-fucose], in assay [1], the “inhibition” value was “can inhibit the triggering of mast cells and basophils”.

In the case of `CO[C@H]1O[C@H](CO)[C@@H](O)[C@H](O)[C@@H]1O` [a-methyl-mannoside], in assay [1], the “inhibition” value was “can inhibit the triggering of mast cells and basophils”.

Take `OC[C@H]1O[C@@H](O)[C@H](O)[C@@H](O)[C@H]1O` [b-D-galactose]: the “inhibition” value in assay [1] was “can inhibit the triggering of mast cells and basophils”.

With `OC[C@H]1O[C@@H](O[C@H]2[C@H](O)[C@@H](O)C(O)O[C@@H]2CO)[C@H](O)[C@@H](O)[C@H]1O` (stereo partly drawn) [lactose], the “inhibition” value in assay [1] was “can inhibit the triggering of mast cells and basophils”.

As for bee venom phospholipase A2, the “mediator release dose response in non-sensitized cells” value in assay [2] was “mediator release increased in response to antigen concentration”. Also, the “mediator release ([3H]-5HT, β-hexosaminidase) dose response in sensitized cells” value in assay [3] is “typical bell-shaped dose response pattern”; in assay [3] (listed as bee venom PLA2), “typical bell-shaped dose response curve”.

For the origin of these results see patent US6946260B2, “Allergen/inflammatory testing and diagnosis” (Euro/DPC Limited, priority 1992, dated 2005).
